Experimental data taken from article PMC6760264 (Journal of medicinal chemistry, 2019).

Target: T1, NTMT1 (Homo sapiens, UniProt Q9BV86)
T1 sequence (Q9BV86 1-223): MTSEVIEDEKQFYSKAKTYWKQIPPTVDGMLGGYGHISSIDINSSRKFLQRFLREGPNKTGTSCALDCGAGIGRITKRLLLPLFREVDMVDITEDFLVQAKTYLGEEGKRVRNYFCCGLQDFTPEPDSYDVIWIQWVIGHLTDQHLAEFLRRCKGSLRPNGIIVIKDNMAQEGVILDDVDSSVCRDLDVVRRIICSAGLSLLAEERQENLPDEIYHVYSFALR
Assay: SAHH-coupled fluorescence assay of NTMT1 inhibition
Format: biochemical
Conditions: at 10 μM

Nc1ncnc2c1ncn2[C@@H]1O[C@H](CN(CCCN2CCC[C@H]2C(=O)O)CC[C@H](N)C(=O)O)[C@@H](O)[C@H]1O [Compound 14, (3-(((S)-3-Amino-3-carboxypropyl)(((2R,3S,4R,5S)-5-(6-amino-9H-purin-9-yl)-3,4-dihydroxytetrahydrofuran-2-yl)-methyl)amino)propyl)-l-proline]
inhibition against NTMT1: did not show any significant inhibition
